Measured values taken from patent US20240327389A1, “LACTONE AND LACTAM CONTAINING COMPOUNDS USEFUL AS IMMUNOMODULATORS” (BRISTOL-MYERS SQUIBB COMPANY, priority 2021, published 2024).

What follows are compounds tested against PD-1/PD-L1 interaction (PD-1-Ig / PD-L1-His) (Homo sapiens (Human), UniProt Q9NZQ7) (assay: PD-1/PD-L1 Homogenous Time-Resolved Fluorescence (HTRF) binding assay). Settings: PD-L1-His 10 nM final, PD-1-Ig 20 nM final.
PD-1/PD-L1 interaction (PD-1-Ig / PD-L1-His), sequence (Q9NZQ7 18-239): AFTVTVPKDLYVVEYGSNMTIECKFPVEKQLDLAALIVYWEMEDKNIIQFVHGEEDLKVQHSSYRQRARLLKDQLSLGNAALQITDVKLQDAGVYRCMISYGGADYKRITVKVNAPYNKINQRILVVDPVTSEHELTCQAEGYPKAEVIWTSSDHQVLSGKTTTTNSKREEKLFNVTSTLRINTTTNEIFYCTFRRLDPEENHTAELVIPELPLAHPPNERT
From the text: The ability of the compounds of the invention to bind to PD-L1 was investigated using a PD-1/PD-L1 Homogenous Time-Resolved Fluorescence (HTRF) binding assay.
The interaction of PD-1 and PD-L1 can be assessed using soluble, purified preparations of the extracellular domains of the two proteins. The PD-1 and PD-L1 protein extracellular domains were expressed as fusion proteins with detection tags, for PD-1, the tag was the Fc portion of Immunoglobulin (PD-1-Ig) and for PD-L1 it was the 6 histidine motif (PD-L1-His). All binding studies were performed in an HTRF assay buffer consisting of dPBS supplemented with 0.1% […] bovine serum albumin and 0.05% (v/v) Tween-20. For the h/PD-L1-His binding assay, inhibitors were pre-incubated with PD-L1-His (10 nM final) for 15 m in 4 μl of assay buffer, followed by addition of PD-1-Ig (20 nM final) in 1 μl of assay buffer and further incubation for 15 m. HTRF detection was achieved using europium crypate-labeled anti-Ig (1 nM final) and allophycocyanin (APC) labeled anti-His (20 nM final). Antibodies were diluted in HTRF detection buffer and 5 μl was dispensed on top of the binding reaction. The reaction mixture was allowed to equilibrate for 30 minutes and the resulting signal (665 nm/620 nm ratio) was obtained using an EnVision fluorometer. Additional binding assays were established between the human proteins PD-1-Ig/PD-L2-His (20 & 5 nM, respectively) and CD80-His/PD-L1-Ig (100 & 10 nM, respectively).
Recombinant Proteins: Human PD-1 (25-167) with a C-terminal human Fc domain of immunoglobulin G (Ig) epitope tag [hPD-1 (25-167)-3S-IG] and human PD-L1 (18-239) with a C-terminal His epitope tag [hPD-L1(18-239)-TVMV-His] were expressed in HEK293T cells and purified sequentially by ProteinA affinity chromatography and size exclusion chromatography. Human PD-L2-His and CD80-His was obtained through commercial sources.
Homogenous Time-Resolved Fluorescence (HTRF) Assays of Binding of Soluble PD-1 to Soluble PD-L1. Soluble PD-1 and soluble PD-L1 refers to proteins with carboxyl-end truncations that remove the transmembrane-spanning regions and are fused to heterologous sequences, specifically the Fc portion of the human immunoglobuling G sequence (Ig) or the hexahistidine epitope tag (His). All binding studies were performed in an HTRF assay buffer consisting of dPBS supplemented with 0.1% (w/v) bovine serum albumin and 0.05% (v/v) Tween-20. For the PD-1-Ig/PD-L1-His binding assay, inhibitors were pre-incubated with PD-L1-His (10 nM final) for 15 m in 4 μl of assay buffer, followed by addition of PD-1-Ig (20 nM final) in 1 μl of assay buffer and further incubation for 15 m. PD-L1 fusion proteins from either human, cynomologous macaques, mouse, or other species were used. HTRF detection was achieved using europium crypate-labeled anti-Ig monoclonal antibody (1 nM final) and allophycocyanin (APC) labeled anti-His monoclonal antibody (20 nM final). Antibodies were diluted in HTRF detection buffer and 5 μl was dispensed on top of binding reaction. The reaction was allowed to equilibrate for 30 minutes and signal (665 nm/620 nm ratio) was obtained using an EnVision fluorometer. Additional binding assays were established between PD-1-Ig/PD-L2-His (20 and 5 nM, respectively), CD80-His/PD-L1-Ig (100 and 10 nM, respectively) and CD80-His/CTLA4-Ig (10 and 5 nM, respectively).
Recombinant Proteins. Carboxyl-truncated human PD-1 (amino acids 25-167) with a C-terminal human Ig epitope tag [hPD-1 (25-167)-3S-IG] and human PD-L1 (amino acids 18-239) with a C-terminal His epitope tag [hPD-L1(19-239)-tobacco vein mottling virus protease cleavage site (TVMV)-His] were expressed in HEK293T cells and purified sequentially by recombinant Protein A affinity chromatography and size exclusion chromatography. Human PD-L2-His (Sino Biologicals), CD80-His (Sino Biologicals), CTLA4-Ig (RnD Systems) were all obtained through commercial sources.
Cc1c(COc2cc(OCc3cncc(C#N)c3)c(CNC3CC(C)(C)OC3=O)cc2Cl)cccc1-c1cccc(COc2cc(OCc3cncc(C#N)c3)c(CNC3CC(C)(C)OC3=O)cc2Cl)c1C (centres unmarked) [Compound 1022] was tested, and the IC50 was 145 nM.
For Cc1c(COc2cc(OCc3cncc(C#N)c3)c(CNC3C(=O)OCC3(C)C)cc2Cl)cccc1-c1cccc(COc2cc(OCc3cncc(C#N)c3)c(CNC3C(=O)OCC3(C)C)cc2Cl)c1C (centres unmarked) [Compound 1023], the IC50 was > 10000 nM.
With Cc1c(COc2cc(OCc3cncc(C#N)c3)c(CNC3CC(C)OC3=O)cc2Cl)cccc1-c1cccc(COc2cc(OCc3cncc(C#N)c3)c(CNC3CC(C)OC3=O)cc2Cl)c1C (centres unmarked) [Compound 1024] the IC50 was 21.4 nM.
With Cc1c(COc2cc(OCc3cncc(C#N)c3)c(CNC3(C)CC(C)(C)OC3=O)cc2Cl)cccc1-c1cccc(COc2cc(OCc3cncc(C#N)c3)c(CNC3(C)CC(C)(C)OC3=O)cc2Cl)c1C (centres unmarked) [Compound 1025] the IC50 was > 10000 nM.
In the case of N#Cc1cncc(COc2cc(OCc3cccc(-c4cccc(COc5cc(OCc6cncc(C#N)c6)c(CN[C@H]6CCOC6=O)cc5Cl)c4Cl)c3Cl)c(Cl)cc2CN[C@H]2CCOC2=O)c1 [Compound 1026], the IC50 is reported as 10.4 nM.
Compound Cc1c(COc2cc(OCc3cncc(C#N)c3)c(CNC3CCNC3=O)cc2Cl)cccc1-c1cccc(OCC2CCCN(C)C2)c1Cl (centres unmarked) [Compound 1027] has an IC50 of 2.5 nM.
Cc1c(COc2cc(O)c(CN[C@H]3COC(=O)C3)cc2Cl)cccc1-c1cccc(OCC2CCCN(C)C2)c1Cl (some centres unmarked) [Compound 1028] was tested, and the IC50 was 44.5 nM.
Work on Cc1c(COc2cc(O)c(CNC3(C)CCOC3=O)cc2Cl)cccc1-c1cccc(OCC2CCCN(C)C2)c1Cl (centres unmarked) [Compound 1029] yielded an IC50 of 132 nM.
Cc1c(COc2cc(O)c(CNC3CC(C)OC3=O)cc2Cl)cccc1-c1cccc(OCC2CCCN(C)C2)c1Cl (centres unmarked) [Compound 1030] showed an IC50 of 80.1 nM.
Compound Cc1c(COc2cc(O)c(CN[C@H]3CCOC3=O)cc2Cl)cccc1-c1cccc(OCC2CCCN(C)C2)c1Cl (some centres unmarked) [Compound 1031] has an IC50 of 39.3 nM.
Compound COc1cc(OCc2cccc(-c3cccc(OCC4CCCN(C)C4)c3Cl)c2C)c(Cl)cc1CNC1CCOC1=O (centres unmarked) [Compound 1032] has an IC50 of 7.8 nM.
Compound COc1cc(OCc2cccc(-c3cccc(OCC4CCCN(C)C4)c3Cl)c2C)c(Cl)cc1CNC1CC(C)OC1=O (centres unmarked) [Compound 1033] has an IC50 of 11.5 nM.
Work on COc1cc(OCc2cccc(-c3cccc(OCC4CCCN(C)C4)c3Cl)c2C)c(Cl)cc1CNC1CC(C)(C)OC1=O (centres unmarked) [Compound 1034] yielded an IC50 of 7.4 nM.
COc1cc(OCc2cccc(-c3cccc(OCC4CCCN(C)C4)c3Cl)c2C)c(Cl)cc1CNC1CCCNC1=O (centres unmarked) [Compound 1035] showed an IC50 of 2.1 nM.
With COc1cc(OCc2cccc(-c3cccc(OCC4CCCN(C)C4)c3Cl)c2C)c(Cl)cc1CNC1(C)CCOC1=O (centres unmarked) [Compound 1036] the IC50 was 7.3 nM.
Work on COc1cc(OCc2cccc(-c3cccc(OCC4CCCN(C)C4)c3Cl)c2C)c(Cl)cc1CNC1C(=O)OCC1(C)C (centres unmarked) [Compound 1037] yielded an IC50 of 136 nM.
Compound COc1cc(OCc2cccc(-c3cccc(OCC4CCCN(C)C4)c3Cl)c2C)c(Cl)cc1CNC1CCNC1=O (centres unmarked) [Compound 1038] has an IC50 of 4.8 nM.
COc1cc(OCc2cccc(-c3cccc(OCC4CCCN(C)C4)c3Cl)c2C)c(Cl)cc1CNC1(C)CC(C)(C)OC1=O (centres unmarked) [Compound 1039] showed an IC50 of 19.6 nM.
In the case of COc1cc(OCc2cccc(-c3cccc(OCC4CCCN(C)C4)c3Cl)c2C)c(Cl)cc1CN[C@H]1CCOC1=O (some centres unmarked) [Compound 1040], the IC50 is reported as 6.7 nM.
For COc1cc(OCc2cccc(-c3cccc(OCC4CCCN(C)C4)c3Cl)c2C)c(Cl)cc1CN[C@@H]1CCOC1=O (some centres unmarked) [Compound 1041], the IC50 was 9.1 nM.
Work on COc1cc(OCc2cccc(-c3cccc(OCC4CCCN(C)C4)c3Cl)c2C)c(Cl)cc1CN[C@H]1COC(=O)C1 (some centres unmarked) [Compound 1042] yielded an IC50 of 5.6 nM.
COc1cc(OCc2cccc(-c3cccc(OCC4CCCN(C)C4)c3Cl)c2C)c(Cl)cc1CN[C@H]1CCNC1=O (some centres unmarked) [Compound 1044] gave an IC50 of 5.6 nM.
COc1cc(OCc2cccc(-c3cccc(OCC4CCCN(C)C4)c3Cl)c2C)c(Cl)cc1CN[C@H]1CCCNC1=O (some centres unmarked) [Compound 1045] gave an IC50 of 3.6 nM.
For COc1cc(OCc2cccc(-c3cccc(OCC4CCCN(C)C4)c3Cl)c2C)c(Cl)cc1CNC1CCC(=O)NC1=O (centres unmarked) [Compound 1046], the IC50 was 3.1 nM.
Cc1c(COc2cc3c(cc2Cl)CN(C2CCOC2=O)C(=O)CO3)cccc1-c1cccc(OCC2CCCN(C)C2)c1Cl (centres unmarked) [Compound 1047] was tested, and the IC50 was 388 nM.
C=C1COc2cc(OCc3cccc(-c4cccc(OCC5CCCN(C)C5)c4Cl)c3C)c(Cl)cc2CN(C2CCOC2=O)C1 (centres unmarked) [Compound 1048] gave an IC50 of 3830 nM.
Cc1c(COc2cc3c(cc2Cl)CN(C2CCOC2=O)CC(O)CO3)cccc1-c1cccc(OCC2CCCN(C)C2)c1Cl (centres unmarked) [Compound 1049] was tested, and the IC50 was 11.5 nM.
CC(=O)N(Cc1cc(Cl)c(COc2cccc(-c3cccc(COc4cc(OCc5cncc(C#N)c5)c(CN(C(C)=O)[C@@H]5COC(=O)C5)cc4Cl)c3C)c2C)cc1OCc1cncc(C#N)c1)[C@@H]1COC(=O)C1 [Compound 1050] showed an IC50 of 47.3 nM.
With Cc1c(COc2cc(OCc3cncc(C#N)c3)c(CN(C)C3(C)CCOC3=O)cc2Cl)cccc1-c1cccc(COc2cc(OCc3cncc(C#N)c3)c(CN(C)C3(C)CCOC3=O)cc2Cl)c1C (centres unmarked) [Compound 1051] the IC50 was 383 nM.
Cc1c(COc2cc(OCc3cncc(C#N)c3)c(CN(CC3CC3)C3(C)CCOC3=O)cc2Cl)cccc1-c1cccc(COc2cc(OCc3cncc(C#N)c3)c(CN(CC3CC3)C3(C)CCOC3=O)cc2Cl)c1C (centres unmarked) [Compound 1052] showed an IC50 of 2500 nM.
Work on Cc1c(COc2cc(OCc3cncc(C#N)c3)c(CN(C)C3CC(C)OC3=O)cc2Cl)cccc1-c1cccc(COc2cc(OCc3cncc(C#N)c3)c(CN(C)C3CC(C)OC3=O)cc2Cl)c1C (centres unmarked) [Compound 1053] yielded an IC50 of 1470 nM.
CCN(Cc1cc(Cl)c(OCc2cccc(-c3cccc(COc4cc(OCc5cncc(C#N)c5)c(CN(CC)C5CC(C)OC5=O)cc4Cl)c3C)c2C)cc1OCc1cncc(C#N)c1)C1CC(C)OC1=O (centres unmarked) [Compound 1054] showed an IC50 of 2520 nM.
